Reference: ChEMBL document CHEMBL1201862, “PubChem BioAssay data set” (2004)
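Tested at 5 concentrations; 48 h exposure; 96-well plates; endpoints linearly interpolated, else capped at highest concentration. At the GI50, growth is halved.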 The source made the active and inactive calls. Rule as the data show it: active = GI50 up to about 1.1 µM and inactive = higher.

Tests used:
Assay in all cases: NCI tumour cell line growth inhibition, 48 h
A498 = test system: A498
BT-549 = test system: BT-549
COLO 205 = test system: COLO 205
DU-145 = test system: DU-145
EKVX = test system: EKVX
HCC 2998 = test system: HCC 2998
HOP-62 = test system: HOP-62
K562 = test system: K562
KM12 = test system: KM12
LOX IMVI = test system: LOX IMVI
MCF7 = test system: MCF7
Malme-3M = test system: Malme-3M
NCI-H23 = test system: NCI-H23
OVCAR-3 = test system: OVCAR-3
OVCAR-4 = test system: OVCAR-4
OVCAR-8 = test system: OVCAR-8
PC-3 = test system: PC-3
SK-MEL-2 = test system: SK-MEL-2
SK-OV-3 = test system: SK-OV-3
HOP-92 = test system: HOP-92

Measured: GI50

NC(=O)Nc1n[nH]c(-c2ccccc2)n1
inactive: A498 > 100 µM | BT-549 > 100 µM | COLO 205 > 100 µM | DU-145 > 100 µM | EKVX > 100 µM | HCC 2998 > 100 µM | HOP-62 54.1 µM | K562 > 100 µM | KM12 > 100 µM | LOX IMVI > 100 µM | MCF7 > 100 µM | Malme-3M > 100 µM | NCI-H23 > 100 µM | OVCAR-3 > 100 µM | OVCAR-4 > 100 µM | OVCAR-8 > 100 µM | PC-3 > 100 µM | SK-MEL-2 > 100 µM | SK-OV-3 1.79 µM

CN(C(=O)Cc1cc(Cl)c(Cl)cc1N=C=S)[C@H]1CCCC[C@@H]1N1CCCC1
inactive: A498 13.5 µM | BT-549 15.1 µM | COLO 205 9.73 µM | DU-145 14.7 µM | EKVX 17.3 µM | HOP-62 14.2 µM | HOP-92 9.42 µM | K562 2.02 µM | KM12 14.8 µM | LOX IMVI 5.9 µM | MCF7 13.3 µM | Malme-3M 17.4 µM | NCI-H23 15.2 µM | OVCAR-3 15.6 µM | OVCAR-4 13.3 µM | OVCAR-8 14 µM | PC-3 13.5 µM | SK-MEL-2 15.3 µM | SK-OV-3 18 µM

O=c1c(-c2ccccc2)c(SCCN2CCCC2)n(-c2ccccc2)c(=S)n1-c1ccccc1
inactive: A498 > 100 µM | BT-549 > 100 µM | COLO 205 > 100 µM | DU-145 > 100 µM | EKVX > 100 µM | HCC 2998 > 100 µM | HOP-62 > 100 µM | HOP-92 71.9 µM | K562 > 100 µM | KM12 > 100 µM | LOX IMVI > 100 µM | MCF7 > 100 µM | Malme-3M > 100 µM | NCI-H23 > 100 µM | OVCAR-4 > 100 µM | OVCAR-8 > 100 µM | PC-3 > 100 µM | SK-MEL-2 > 100 µM | SK-OV-3 > 100 µM

N#Cc1c(N2CCOCC2)[nH]c(=O)c(C(c2c(Cl)cccc2Cl)c2c(O)c(C#N)c(N3CCOCC3)[nH]c2=O)c1O
inactive: A498 34.5 µM | BT-549 17.6 µM | COLO 205 13.8 µM | DU-145 23.9 µM | EKVX 18.3 µM | HCC 2998 12.5 µM | HOP-62 22.1 µM | HOP-92 18 µM | K562 11.2 µM | KM12 16.1 µM | LOX IMVI 13 µM | MCF7 16.7 µM | Malme-3M 12.9 µM | NCI-H23 16.2 µM | OVCAR-3 16.4 µM | OVCAR-4 17.7 µM | OVCAR-8 18.6 µM | PC-3 17.8 µM | SK-MEL-2 17.6 µM

N#Cc1c(=O)c2ccccc2n2c1[nH]c1ccccc12
inactive: A498 25.1 µM | BT-549 58.3 µM | COLO 205 43.1 µM | DU-145 33.9 µM | EKVX 25 µM | HCC 2998 58.3 µM | HOP-62 > 100 µM | K562 21.3 µM | KM12 27.4 µM | LOX IMVI 20.6 µM | MCF7 56.2 µM | NCI-H23 55.2 µM | OVCAR-3 38.6 µM | OVCAR-4 24.1 µM | OVCAR-8 27.6 µM | PC-3 29 µM | SK-MEL-2 47.3 µM

CC(C)(C)OC(=O)CC(NC(=O)OC(C)(C)C)C(=O)Oc1ccc([N+](=O)[O-])cc1 (centres undefined)
inactive: A498 > 100 µM | BT-549 > 100 µM | COLO 205 > 100 µM | DU-145 > 100 µM | EKVX > 100 µM | HOP-62 > 100 µM | HOP-92 > 100 µM | K562 > 100 µM | KM12 > 100 µM | LOX IMVI > 100 µM | MCF7 > 100 µM | Malme-3M > 100 µM | NCI-H23 > 100 µM | OVCAR-3 > 100 µM | OVCAR-4 > 100 µM | OVCAR-8 > 100 µM | PC-3 > 100 µM | SK-MEL-2 > 100 µM | SK-OV-3 29.9 µM

CC(=O)NNC(=O)C1CCCCN1 (centres undefined)
inactive: A498 > 100 µM | BT-549 > 100 µM | COLO 205 > 100 µM | DU-145 > 100 µM | EKVX > 100 µM | HOP-62 > 100 µM | HOP-92 > 100 µM | K562 > 100 µM | KM12 > 100 µM | LOX IMVI > 100 µM | MCF7 > 100 µM | Malme-3M > 100 µM | NCI-H23 > 100 µM | OVCAR-3 > 100 µM | OVCAR-4 > 100 µM | OVCAR-8 > 100 µM | PC-3 > 100 µM | SK-MEL-2 > 100 µM | SK-OV-3 > 100 µM

C=CCN1CCC(OC(=O)C(O)(/C=C\CC)C2CCCC2)CC1 (centres undefined)
inactive: A498 > 100 µM | BT-549 > 100 µM | COLO 205 > 100 µM | DU-145 > 100 µM | EKVX > 100 µM | HOP-62 > 100 µM | HOP-92 38.2 µM | K562 > 100 µM | LOX IMVI > 100 µM | MCF7 > 100 µM | Malme-3M > 100 µM | NCI-H23 8.71 µM | OVCAR-3 > 100 µM | OVCAR-4 > 100 µM | OVCAR-8 > 100 µM | PC-3 > 100 µM | SK-MEL-2 > 100 µM | SK-OV-3 > 100 µM

CCOc1ccccc1N1CSc2nnc(-c3ccccc3)n2C1
inactive: A498 > 100 µM | BT-549 > 100 µM | COLO 205 68.1 µM | DU-145 > 100 µM | HCC 2998 > 100 µM | HOP-62 > 100 µM | HOP-92 > 100 µM | K562 > 100 µM | KM12 > 100 µM | MCF7 97.3 µM | Malme-3M > 100 µM | NCI-H23 > 100 µM | OVCAR-3 > 100 µM | OVCAR-4 > 100 µM | OVCAR-8 > 100 µM | PC-3 > 100 µM | SK-MEL-2 > 100 µM | SK-OV-3 > 100 µM

CC(=O)Nn1c(=S)[nH]c2ccccc21
inactive: A498 > 100 µM | BT-549 > 100 µM | COLO 205 > 100 µM | DU-145 > 100 µM | EKVX > 100 µM | HCC 2998 > 100 µM | HOP-62 > 100 µM | HOP-92 > 100 µM | K562 > 100 µM | KM12 > 100 µM | LOX IMVI > 100 µM | MCF7 > 100 µM | Malme-3M > 100 µM | NCI-H23 > 100 µM | OVCAR-4 > 100 µM | OVCAR-8 > 100 µM | PC-3 > 100 µM | SK-MEL-2 > 100 µM | SK-OV-3 > 100 µM

Cc1onc(-c2c(F)cccc2Cl)c1C(=O)N[C@@H]1C(=O)N2[C@@H]1SC(C)(C)[C@@H]2C(=O)O
inactive: A498 > 100 µM | BT-549 > 100 µM | COLO 205 > 100 µM | DU-145 > 100 µM | EKVX > 100 µM | HOP-62 > 100 µM | HOP-92 > 100 µM | K562 > 100 µM | KM12 > 100 µM | MCF7 > 100 µM | Malme-3M > 100 µM | NCI-H23 > 100 µM | OVCAR-3 > 100 µM | OVCAR-4 > 100 µM | OVCAR-8 > 100 µM | PC-3 > 100 µM | SK-MEL-2 > 100 µM | SK-OV-3 > 100 µM
